Values of other authors as cited in PubChem BioAssay AID1259410 (Chemical Carcinogenesis Research Information System (CCRIS), 2018).

System: rodent tumor promotion studies, tumor incidence
Experiment: CCRIS tumor promotion studies
Source text: The CCRIS database contains chemical records with carcinogenicity, mutagenicity, tumor promotion, and tumor inhibition test results. It was developed by the National Cancer Institute (NCI). Data are derived from studies cited in primary journals, current awareness tools, NCI reports, and other sources. Test results have been reviewed by experts in carcinogenesis and mutagenesis.
CCRIS provides historical information from the years 1985 - 2011. It is no longer updated.
This is an archive assay for CCRIS tumor promotion studies.

SMILES: O=C1NS(=O)(=O)c2ccccc21
- outcome (Carcinogen: FREEZE ULCERATION, Doses [Promoter]: 0, 5% IN DIET BEGINNING IMMEDIATELY, 2, 4, 6 OR 18 WK AFTER ULCERATION OF THE BLADDER BY FREEZING AND CONTINUING FOR DUR, Route [Promoter]: ORAL, Species: RAT, Strain/Sex: F344/MALE): urinary bladder: transitional cell carcinoma
- outcome (Carcinogen: METHYLNITROSOUREA, Doses [Carcinogen]: BLADDER IMP, Doses [Promoter]: IN DIET, Route [Carcinogen]: BLADDER IMPLANT, Route [Promoter]: ORAL, Species: RAT, Strain/Sex: WISTAR/FEMALE): urinary bladder
- outcome (Carcinogen: N-(4-(5-NITRO-2-FURYL)-2-THIAZOLYL)FORMAMIDE, 24554-26-5, Doses [Carcinogen]: 0.2% IN AIN-76A DIET FOR 4 WK, Doses [Promoter]: 0, 5% IN PROLAB DIET BEGINNING 1 WK POST CARCINOGEN TREATMENT AND CONTINUING FOR 100 WK (STUDY DURATION: 105 WK), Route [Carcinogen]: ORAL, Route [Promoter]: ORAL, Species: RAT, Strain/Sex: F344/MALE): bladder: papilloma and carcinoma
- outcome (Carcinogen: N-(4-(5-NITRO-2-FURYL)-2-THIAZOLYL)FORMAMIDE, 24554-26-5, Doses [Carcinogen]: 0.2% IN PROLAB DIET FOR 4 WK, Doses [Promoter]: 0, 5% IN PROLAB DIET BEGINNING 1 WK POST CARCINOGEN TREATMENT AND CONTINUING FOR 100 WK (STUDY DURATION: 105 WK), Route [Carcinogen]: ORAL, Route [Promoter]: ORAL, Species: RAT, Strain/Sex: F344/MALE): bladder: papilloma and carcinoma
- outcome (Carcinogen: N-(4-(5-NITRO-2-FURYL)-2-THIAZOLYL)FORMAMIDE, Doses [Carcinogen]: DIET, Doses [Promoter]: IN DIET, Route [Carcinogen]: ORAL, Route [Promoter]: ORAL, Species: RAT, Strain/Sex: F344/MALE): urinary bladder: carcinoma
- outcome (Carcinogen: N-BUTYL-N-4(HYDROXYBUTYL)NITROSAMINE, 3817-11-6, Doses [Carcinogen]: 0.05% IN DRINKING WATER FOR 2 WK, Doses [Promoter]: 0, 5% IN DIET STARTING POST CARCINOGEN AND CONTINUING FOR 22 WK, LEFT URETER LIGATED 8 D POST CARCINOGEN (STUDY DURATION, Route [Carcinogen]: ORAL, Route [Promoter]: ORAL, Species: RAT, Strain/Sex: F344/MALE): bladder: papilloma
- outcome (Carcinogen: N-BUTYL-N-(4-HYDROXYBUTYL)NITROSAMINE, 3817-11-6, Doses [Carcinogen]: 0.05% IN DRINKING WATER FOR 4 WK, Doses [Promoter]: 0, 5% IN DIET FOR 32 WK POST CARCINOGEN DOSE (STUDY DURATION: 36 WK), Route [Carcinogen]: ORAL, Route [Promoter]: ORAL, Species: RAT, Strain/Sex: F344/MALE): bladder: carcinoma or papilloma
- outcome (Carcinogen: N-[4-(5-NITRO-2-FURYL)-2-THIAZOLYL]FORMAMIDE, 24554-26-5, Doses [Carcinogen]: 0.2% IN DIET FOR 6 WK, Doses [Promoter]: 0, 5% IN PROLAB DIET FOR 72 WK BEGINNING POST CARCINOGEN TREATMENT (STUDY DURATION: 78 WK), Route [Carcinogen]: ORAL, Route [Promoter]: ORAL, Species: RAT, Strain/Sex: F344/MALE): urinary bladder: carcinoma, carcinoma or papilloma
- outcome (Carcinogen: N-[4-(5-NITRO-2-FURYL)-2-THIAZOLYL]FORMAMIDE, Doses [Carcinogen]: 0.2% IN DIET FOR 6 WK, Doses [Promoter]: 0, 3% IN PROLAB DIET FOR 72 WK BEGINNING POST CARCINOGEN TREATMENT (STUDY DURATION: 78 WK), Route [Carcinogen]: ORAL, Route [Promoter]: ORAL, Species: RAT, Strain/Sex: F344/MALE): urinary bladder: carcinoma, carcinoma or papilloma

SMILES: C[C@H](CCC(=O)O)[C@H]1CC[C@H]2[C@@H]3[C@H](O)C[C@@H]4C[C@H](O)CC[C@]4(C)[C@H]3C[C@H](O)[C@]12C
- outcome (Carcinogen: AZOXYMETHANE, 25843-45-2, Doses [Carcinogen]: 15 MG/KG BW 1/WK FOR 2 WK, Doses [Promoter]: 0, 0.4% IN THE DIET FOR 28 WK BEGINNING 2 WK PRIOR TO CARCINOGEN TREATMENT (STUDY DURATION: 30 WK), Route [Carcinogen]: SUBCUTANEOUS, Route [Promoter]: ORAL, Species: RAT, Strain/Sex: F344/MALE): colon: tumor
- outcome (Doses [Carcinogen]: IR, Route [Carcinogen]: RECTAL, Route [Promoter]: RECTAL, Species: RAT, Strain/Sex: FEMALE): colon

SMILES: O=C(O)C(Cl)Cl
- outcome (Carcinogen: N-METHYL-N-NITROSOUREA, 684-93-5, Doses [Carcinogen]: 25 MG/KG IN STERILE SALINE ONCE, Doses [Promoter]: 0, 25 MMOL/L IN DRINKING WATER FOR 44 WK BEGINNING 2 WK POST CARCINOGEN DOSE (STUDY DURATION: 46 WK), Route [Carcinogen]: INTRAPERITONEAL, Route [Promoter]: ORAL, Species: MOUSE, Strain/Sex: B6C3F1/FEMALE): liver: adenoma
- outcome (Carcinogen: N-METHYL-N-NITROSOUREA, 684-93-5, Doses [Carcinogen]: 25 MG/KG ONCE AT 15 D OF AGE, Doses [Promoter]: 0, 20 NMOL/L IN DRINKING WATER FOR 31 WK BEGINNING AT 7 WK OF AGE (STUDY DURATION: 31 WK), Route [Carcinogen]: INTRAPERITONEAL, Route [Promoter]: ORAL, Species: MOUSE, Strain/Sex: B6C3F1/FEMALE): liver: adenoma
- outcome (Carcinogen: N-METHYL-N-NITROSOUREA, 684-93-5, Doses [Carcinogen]: 25 MG/KG ONCE AT 15 D OF AGE, Doses [Promoter]: 0, 20 NMOL/L IN DRINKING WATER FOR 52 WK BEGINNING AT 7 WK OF AGE (STUDY DURATION: 52 WK), Route [Carcinogen]: INTRAPERITONEAL, Route [Promoter]: ORAL, Species: MOUSE, Strain/Sex: B6C3F1/FEMALE): liver: adenoma

SMILES: CCCC(C)C1(CC)C(=O)NC(=O)NC1=O (stereo unspecified)
- outcome (Carcinogen: N-NITROSODIETHYLAMINE, 55-18-5, Doses [Carcinogen]: 75 MG/KG BW IN 0.85% SALINE ONCE, Doses [Promoter]: 0, 485 PPM IN DIET FOR DURATION OF STUDY BEGINNING 2 WK POST CARCINOGEN DOSE (STUDY DURATION: 78 WK), Route [Carcinogen]: INTRAPERITONEAL, Route [Promoter]: ORAL, Species: RAT, Strain/Sex: F344/MALE): liver: carcinoma, adenoma

SMILES: C=C(/C=C/C=C(/CO)[C@@H]1CC[C@]2([C@H](CCCO)/C(=C(/C)C=O)CC[C@]2(C)O)[C@@H]1O)CCC=C(C)C
- outcome (Carcinogen: 7,12-DIMETHYLBENZ[A]ANTHRACENE, 57-97-6, Doses [Carcinogen]: 100 UG ONCE, Doses [Promoter]: 0, 400 NMOL 2/WK FOR 19 WK BEGINNING 1WK POST CARCINOGEN DOSE (STUDY DURATION: 20 WK), Route [Carcinogen]: DERMAL, Route [Promoter]: DERMAL, Species: MOUSE, Strain/Sex: CD-1/FEMALE): skin: tumor
